Data as given in patent US20260042762A1 (Kymera Therapeutics, Inc., priority 2018, published 2026).

Target: T1, MerTK (Homo sapiens, UniProt Q12866)
T1 construct: endogenous in cells; host or cells: Jurkat cells
T1 sequence (Q12866 21-999): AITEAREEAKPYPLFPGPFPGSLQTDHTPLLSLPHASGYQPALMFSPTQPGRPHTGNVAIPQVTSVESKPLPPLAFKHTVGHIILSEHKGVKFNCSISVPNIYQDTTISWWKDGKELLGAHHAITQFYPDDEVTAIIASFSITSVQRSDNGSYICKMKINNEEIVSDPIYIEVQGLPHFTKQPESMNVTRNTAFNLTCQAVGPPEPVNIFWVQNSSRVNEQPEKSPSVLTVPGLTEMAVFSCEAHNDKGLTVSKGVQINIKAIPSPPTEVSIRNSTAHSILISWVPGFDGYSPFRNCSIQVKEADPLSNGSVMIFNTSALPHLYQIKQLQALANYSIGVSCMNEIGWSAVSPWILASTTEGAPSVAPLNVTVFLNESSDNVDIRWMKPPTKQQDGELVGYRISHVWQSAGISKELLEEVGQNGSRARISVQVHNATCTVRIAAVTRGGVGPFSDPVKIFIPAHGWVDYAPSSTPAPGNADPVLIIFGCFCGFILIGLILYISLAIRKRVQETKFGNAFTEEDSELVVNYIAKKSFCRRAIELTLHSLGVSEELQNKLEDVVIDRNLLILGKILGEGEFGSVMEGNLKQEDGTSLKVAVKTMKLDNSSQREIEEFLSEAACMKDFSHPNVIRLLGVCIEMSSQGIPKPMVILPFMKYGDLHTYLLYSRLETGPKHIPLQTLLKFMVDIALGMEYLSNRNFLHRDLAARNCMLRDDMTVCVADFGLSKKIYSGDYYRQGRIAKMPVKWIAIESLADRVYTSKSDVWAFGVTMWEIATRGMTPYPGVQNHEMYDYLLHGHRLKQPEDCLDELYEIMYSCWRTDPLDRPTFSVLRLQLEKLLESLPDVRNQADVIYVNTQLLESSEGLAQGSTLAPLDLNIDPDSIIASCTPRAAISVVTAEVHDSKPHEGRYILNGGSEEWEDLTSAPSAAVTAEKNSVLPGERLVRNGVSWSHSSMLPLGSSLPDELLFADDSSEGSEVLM
Test: MerTk degradation in Jurkat cells (Western blot)
Format: cell-based
Conditions: Jurkat, 4 h, 0.001-1 μM, 4 hour-incubation at 37° C., read-out: Jurkat Max % MerTK Degradation
Procedure, shortened: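 Jurkat cells treated 4 h at 37 °C with compound at 0.001-1 μM final. RIPA lysates quantified by BCA, then MerTK probed by Western blot against actin loading control with IR-dye secondaries and Odyssey imaging.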

Row | Compound | Dmax [%]
1 | CCCCNc1ncc2c(-c3ccc(S(=O)(=O)N4CCN(CCOCCOCCOCCOCC(=O)N[C@H](C(=O)N5C[C@H](O)C[C@H]5C(=O)NCc5ccc(-c6scnc6C)cc5)C(C)(C)C)CC4)cc3)nn([C@H]3CC[C@H](O)CC3)c2n1 [I-33, (2S,4R)-1-((S)-2-(tert-butyl)-17-(4-((4-(6-(butylamino)-1-(trans-4-hydroxycyclohexyl)-1H-pyrazolo[3,4-d]pyrimidin-3-yl)phenyl)sulfonyl)piperazin-1-yl)-4-oxo-6,9,12,15-tetraoxa-3-azaheptadecanoyl)-4-hydroxy-N-(4-(4-methylthiazol-5-yl)benzyl)pyrrolidine-2-carboxamide] | > 50
2 | C[C@H](CC(F)(F)F)Nc1ncc2c(-c3ccc(CN4CCN(CCCOC5CCN(Cc6ccc7c(c6)n(C)c(=O)n7C6CCC(=O)NC6=O)CC5)CC4)cc3)cn([C@H]3CC[C@H](O)CC3)c2n1 (stereo partly drawn) [I-196, 3-(3-methyl-2-oxo-5-[[4-(3-[4-[(4-[7-[trans-4-hydroxycyclohexyl]-2-[[(2R)-4,4,4-trifluorobutan-2-yl]amino]pyrrolo[2,3-d]pyrimidin-5-y1]phenyl)methyl]piperazin-1-yl]propoxy)piperidin-1-yl]methyl]-1,3-benzodiazol-1-yl)piperidine-2,6-dione] | > 50
3 | CCCCNc1ncc2c(-c3ccc(CN4CCN(CCOCCOCCOCCOCCNc5ccc6c(c5)n(C)c(=O)n6[C@H]5CCC(=O)NC5=O)CC4)cc3)cn([C@H]3CC[C@H](O)CC3)c2n1 [I-61, 3-(5-[15-[4-([4-[2-(butylamino)-7-[trans-4-hydroxycyclohexyl]-7H-pyrrolo[2,3-d]pyrimidin-5-yl]phenyl]methyl)piperazin-1-y1]-4,7,10,13-tetraoxa-1-azapentadecan-1-y1]-3-methyl-2-oxo-2,3-dihydro-1H-1,3-benzodiazol-1-y1)piperidine-2,6-dione; bis(formic acid)] | > 50
4 | Cn1c(=O)n(C2CCC(=O)NC2=O)c2ccc(CN3CCN([C@H]4CCN(Cc5ccc(-c6cn([C@H]7CC[C@H](O)CC7)c7nc(NCCC(F)(F)F)ncc67)cc5)C4)CC3)cc21 (stereo partly drawn) [I-158, 3-[3-methyl-2-oxo-5-([4-[(3R)-1-[(4-[7-[trans-4-hydroxycyclohexy1]-2-[(3,3,3-trifluoropropyl)amino]pyrrolo[2,3-d]pyrimidin-5-y1]phenyl)methyl]pyrrolidin-3-y1]piperazin-1-yl]methyl)-1,3-benzodiazol-1-yl]piperidine-2,6-dione] | > 50
5 | CCCCNc1ncc2c(-c3ccc(CN4CCC(OCCCOCCCc5ccc6c(c5)n(C)c(=O)n6[C@H]5CCC(=O)NC5=O)CC4)cc3)cn([C@H]3CC[C@H](O)CC3)c2n1 [I-66, 3-[5-[3-(3-[[1-([4-[2-(butylamino)-7-[trans-4-hydroxycyclohexyl]-7H-pyrrolo[2,3-d]pyrimidin-5-yl]phenyl]methyl)piperidin-4-yl]oxy]propoxy)propyl]-3-methyl-2-oxo-2,3-dihydro-1H-1,3-benzodiazol-1-yl]piperidine-2,6-dione] | > 50
6 | Cn1c(=O)n([C@H]2CCC(=O)NC2=O)c2ccc(CCCN3CC(C4CCN(Cc5ccc(-c6cn([C@H]7CC[C@H](O)CC7)c7nc(NCCC(F)(F)F)ncc67)cc5)CC4)C3)cc21 [I-136, 3-[3-methyl-2-oxo-5-[3-(3-[1-[(4-[7-[trans-4-hydroxycyclohexyl]-2-[(3,3,3-trifluoropropyl)amino]pyrrolo[2,3-d]pyrimidin-5-yl]phenyl)methyl]piperidin-4-yl]azetidin-1-yl)propyl]-1,3-benzodiazol-1-y1]piperidine-2,6-dione; tris(formic acid)] | > 50
7 | CCCCNc1ncc2c(-c3ccc(CN4CCN(CCOCCOCCOCCOCCNc5cccc6c5n(C)c(=O)n6C5CCC(=O)NC5=O)CC4)cc3)cn([C@H]3CC[C@H](O)CC3)c2n1 (stereo partly drawn) [I-36, trans-3-(4-[15-[4-([4-[2-(butylamino)-7-[4-hydroxycyclohexyl]-7H-pyrrolo[2,3-d]pyrimidin-5-yl]phenyl]methyl)piperazin-1-yl]-4,7,10,13-tetraoxa-1-azapentadecan-1-yl]-3-methyl-2-oxo-2,3-dihydro-1H-1,3-benzodiazol-1-yl)piperidine-2,6-dione] | > 50
8 | Cn1c(=O)n([C@H]2CCC(=O)NC2=O)c2ccc(CCCOCCOCCN3CCN(C[C@H]4CC[C@H](c5cn([C@H]6CC[C@H](O)CC6)c6nc(NCCC(F)(F)F)ncc65)CC4)CC3)cc21 [I-154, 3-[3-methyl-2-oxo-5-(3-[2-[2-(4-[[(1r,4r)-4-[7-[trans-4-hydroxycyclohexyl]-2-[(3,3,3-trifluoropropyl)amino]pyrrolo[2,3-d]pyrimidin-5-y1]cyclohexyl]methyl]piperazin-1-y1)ethoxy]ethoxy]propyl)-1,3-benzodiazol-1-yl]piperidine-2,6-dione] | > 50
9 | Cc1ncsc1-c1ccc(CNC(=O)[C@@H]2C[C@@H](O)CN2C(=O)[C@@H](NC(=O)C2(F)CC2)C(C)(C)C)c(OCCCCCCN2CCN(Cc3ccc(-c4cn([C@H]5CC[C@H](O)CC5)c5nc(NCCC(F)(F)F)ncc45)cc3)CC2)c1 [I-212, (2S,4R)-1-[(2S)-2-[(1-fluorocyclopropyl)formamido]-3,3-dimethylbutanoyl]-4-hydroxy-N-[[4-(4-methyl-1,3-thiazol-5-yl)-2-[(6-[4-[(4-[7-[trans-4-hydroxycyclohexyl]-2-[(3,3,3-trifluoropropyl)amino]pyrrolo[2,3-d]pyrimidin-5-yl]phenyl)methyl]piperazin-1-yl]hexyl)oxy]phenyl]methyl]pyrrolidine-2-carboxamide] | > 50
10 | O=C1CC[C@H](n2c3cc(CCCOCCOCCN4CCN(Cc5ccc(-c6cn([C@H]7CC[C@H](O)CC7)c7nc(NCCC(F)(F)F)ncc67)cc5)CC4)ccc3c3cccnc32)C(=O)N1 [I-127, 3-(7-[3-[2-(2-[4-[(4-[7-[trans-4-hydroxycyclohexy1]-2-[(3,3,3-trifluoropropyl)amino]-7H-pyrrolo[2,3-d]pyrimidin-5-yl]phenyl)methyl]piperazin-1-yl]ethoxy)ethoxy]propyl]-9H-pyrido[2,3-b]indol-9-yl)piperidine-2,6-dione] | 20 to 50
11 | Cn1c(=O)n([C@H]2CCC(=O)NC2=O)c2ccc(CCCOCCOCCC3CCN(C[C@H]4CC[C@H](c5cn([C@H]6CC[C@H](O)CC6)c6nc(NCCC(F)(F)F)ncc65)CC4)CC3)cc21 [I-164, 3-[3-methyl-2-oxo-5-(3-[2-[2-(1-[[trans-4-[7-[trans-4-hydroxycyclohexyl]-2-[(3,3,3-trifluoropropyl)amino]pyrrolo[2,3-d]pyrimidin-5-yl]cyclohexyl]methyl]piperidin-4-yl)ethoxy]ethoxy]propyl)-1,3-benzodiazol-1-y1]piperidine-2,6-dione] | > 50
12 | C[C@H](Nc1ncc2c(-c3ccc(CN4CCN(CCCOCCCc5ccc6c(c5)n(C)c(=O)n6C5CCC(=O)NC5=O)CC4)cc3)cn([C@H]3CC[C@H](O)CC3)c2n1)C(F)F (stereo partly shown) [I-216] | > 50
13 | CCCCNc1ncc2c(n1)n([C@H]1CC[C@H](O)CC1)cc2[C@H]1CC[C@@H](CN2CCN(CCOCCOCCOCCOCCCc3ccc4c(c3)n(C)c(=O)n4[C@H]3CCC(=O)NC3=O)CC2)CC1 [I-89, 3-[3-methyl-2-oxo-5-[1-(4-[[(1s,4s)-4-[2-(butylamino)-7-[trans-4-hydroxycyclohexy1]-7H-pyrrolo[2,3-d]pyrimidin-5-yl]cyclohexyl]methyl]piperazin-1-yl)-3,6,9,12-tetraoxapentadecan-15-yl]-2,3-dihydro-1H-1,3-benzodiazol-1-yl]piperidine-2,6-dione; di(formic acid)] | > 50
